From US9365548B2, “Benzoimidazol-2-yl pyrimidines and pyrazines as modulators of the histamine H4 receptor” (Janssen Pharmaceutica NV, priority 2006, dated 2016)

Molecular target: T1, Recombinant Human Histamine H4 Receptor (Homo sapiens, UniProt Q9H3N8)
T1 construct: expressed in transfected cells; host or cells: SK-N-MC cells or COS7 cells, transiently transfected; cell membranes used
Assay: Binding Assay on Recombinant Human Histamine H4 Receptor
Conditions: competition binding with 3H-histamine, membranes of SK-N-MC or COS7 cells expressing human histamine H4 receptor; Ki by Cheng-Prusoff (KD 5 nM, ligand 5 nM); average of results obtained
From the text: Additional examples of embodiments of this invention are provided by hemitartrate salts of compounds of Formula (I) and by hydrates, such as monohydrates and dihydrates, of compounds of Formula (I). […]

Row | Ki [µM] | SMILES
1 | 0.021 | Cc1nc(NCCCC2CCN(C)CC2)ncc1-c1nc2c(C)c(F)ccc2[nH]1 [Example 1, [5-(5-Fluoro-4-methyl-1H-benzoimidazol-2-yl)-4-methyl-pyrimidin-2-yl]-[3-(1-methyl-piperidin-4-yl)-propyl]-amine]
2 | 0.011 | Cc1cc(C)c2nc(-c3cnc(NCCCC4CCN(C)CC4)nc3C)[nH]c2c1 [Example 2, [5-(4,6-Dimethyl-1H-benzoimidazol-2-yl)-4-methyl-pyrimidin-2-yl]-[3-(1-methyl-piperidin-4-yl)-propyl]-amine]
3 | 0.004 | Cc1nc(NCCCC2CCN(C)CC2)ncc1-c1nc2c(C)cc(F)cc2[nH]1 [Example 3, [5-(6-Fluoro-4-methyl-1H-benzoimidazol-2-yl)-4-methyl-pyrimidin-2-yl]-[3-(1-methyl-piperidin-4-yl)-propyl]-amine]
4 | 0.011 | Cc1nc(NCCCC2CCN(C)CC2)ncc1-c1nc2c(F)c(F)ccc2[nH]1 [Example 4, [5-(4,5-Difluoro-1H-benzoimidazol-2-yl)-4-methyl-pyrimidin-2-yl]-[3-(1-methyl-piperidin-4-yl)-propyl]-amine]
5 | 0.004 | Cc1ccc2[nH]c(-c3cnc(NCCCC4CCN(C)CC4)nc3C)nc2c1C [Example 5, [5-(4,5-Dimethyl-1H-benzoimidazol-2-yl)-4-methyl-pyrimidin-2-yl]-[3-(1-methyl-piperidin-4-yl)-propyl]-amine]
6 | 0.017 | Cc1nc(NCCCC2CCN(C)CC2)ncc1-c1nc2c(F)cc(F)cc2[nH]1 [Example 6, [5-(4,6-Difluoro-1H-benzoimidazol-2-yl)-4-methyl-pyrimidin-2-yl]-[3-(1-methyl-piperidin-4-yl)-propyl]-amine]
7 | 0.083 | Cc1cc(C)c2nc(-c3cnc(N(C)CCCC4CCN(C)CC4)nc3C)[nH]c2c1 [Example 7, [5-(4,6-Dimethyl-1H-benzoimidazol-2-yl)-4-methyl-pyrimidin-2-yl]-methyl-[3-(1-methyl-piperidin-4-yl)-propyl]-amine]
8 | 0.21 | CCc1nc(NCCCC2CCN(C)CC2)ncc1-c1nc2c(F)c(F)ccc2[nH]1 [Example 9, [5-(4,5-Difluoro-1H-benzoimidazol-2-yl)-4-ethyl-pyrimidin-2-yl]-[3-(1-methyl-piperidin-4-yl)-propyl]-amine]
9 | 0.47 | CCCc1nc(NCCCC2CCN(C)CC2)ncc1-c1nc2c(F)c(C)ccc2[nH]1 [Example 10, [5-(4-Fluoro-5-methyl-1H-benzoimidazol-2-yl)-4-propyl-pyrimidin-2-yl]-[3-(1-methyl-piperidin-4-yl)-propyl]-amine]
10 | 0.36 | Cc1ccc2[nH]c(-c3cnc(NCCCC4CCN(C)CC4)nc3C(C)C)nc2c1C [Example 11, [5-(4,5-Dimethyl-1H-benzoimidazol-2-yl)-4-isopropyl-pyrimidin-2-yl]-[3-(1-methyl-piperidin-4-yl)-propyl]-amine]
11 | 0.2 | Cc1cc(C)c2nc(-c3cnc(NCCCC4CCN(C)CC4)nc3C(C)C)[nH]c2c1 [Example 12, [5-(4,6-Dimethyl-1H-benzoimidazol-2-yl)-4-isopropyl-pyrimidin-2-yl]-[3-(1-methyl-piperidin-4-yl)-propyl]-amine]
12 | 0.43 | Cc1ccc2[nH]c(-c3cnc(NCCCC4CCN(C)CC4)nc3C3CCC3)nc2c1C [Example 13, [4-Cyclobutyl-5-(4,5-dimethyl-1H-benzoimidazol-2-yl)-pyrimidin-2-yl]-[3-(1-methyl-piperidin-4-yl)-propyl]-amine]
13 | 1.01 | CN1CCC(CCCNc2ncc(-c3nc4c(F)c(F)ccc4[nH]3)c(C3CCC3)n2)CC1 [Example 14, [4-Cyclobutyl-5-(4,5-difluoro-1H-benzoimidazol-2-yl)-pyrimidin-2-yl]-[3-(1-methyl-piperidin-4-yl)-propyl]-amine]
14 | 0.29 | Cc1c(F)ccc2[nH]c(-c3cnc(NCCCC4CCN(C)CC4)nc3)nc12 [Example 15, [5-(5-Fluoro-4-methyl-1H-benzoimidazol-2-yl)-pyrimidin-2-yl]-[3-(1-methyl-piperidin-4-yl)-propyl]-amine]
15 | 1.47 | Cc1c(F)ccc2[nH]c(-c3cnc(NCCCC4CCN(C)CC4)nc3C3CCC3)nc12 [Example 16, [4-Cyclobutyl-5-(5-fluoro-4-methyl-1H-benzoimidazol-2-yl)-pyrimidin-2-yl]-[3-(1-methyl-piperidin-4-yl)-propyl]-amine]
16 | 1.32 | Cc1cc(C)c2nc(-c3cnc(NCCCC4CCN(C)CC4)nc3C3CCC3)[nH]c2c1 [Example 17, [4-Cyclobutyl-5-(4,6-dimethyl-1H-benzoimidazol-2-yl)-pyrimidin-2-yl]-[3-(1-methyl-piperidin-4-yl)-propyl]-amine]
17 | 2.41 | CCCc1nc(NCCCC2CCN(C)CC2)ncc1-c1nc2c(C)c(C)ccc2[nH]1 [Example 18, [5-(4,5-Dimethyl-1H-benzoimidazol-2-yl)-4-propyl-pyrimidin-2-yl]-[3-(1-methyl-piperidin-4-yl)-propyl]-amine]

Row | Ki [µM] | SMILES
18 | 0.23 | Cc1c(F)ccc2[nH]c(-c3cnc(NCCCC4CCN(C)CC4)nc3C(C)C)nc12 [Example 20, [5-(5-Fluoro-4-methyl-1H-benzoimidazol-2-yl)-4-isopropyl-pyrimidin-2-yl]-[3-(1-methyl-piperidin-4-yl)-propyl]-amine]
19 | 0.027 | Cc1nc(NCCCC2CCN(C)CC2)ncc1-c1nc2c(C)cccc2[nH]1 [Example 21, [4-Methyl-5-(4-methyl-1H-benzoimidazol-2-yl)-pyrimidin-2-yl]-[3-(1-methyl-piperidin-4-yl)-propyl]-amine]
20 | 0.11 | Cc1nc(NCCCC2CCN(C)CC2)ncc1-c1nc2ccccc2[nH]1 [Example 22, [5-(1H-Benzoimidazol-2-yl)-4-methyl-pyrimidin-2-yl]-[3-(1-methyl-piperidin-4-yl)-propyl]-amine]
21 | 0.059 | Cc1nc(NCCCC2CCN(C)CC2)ncc1-c1nc2cc(F)ccc2[nH]1 [Example 23, [5-(5-Fluoro-1H-benzoimidazol-2-yl)-4-methyl-pyrimidin-2-yl]-[3-(1-methyl-piperidin-4-yl)-propyl]-amine]
22 | 0.012 | Cc1nc(NCCCC2CCN(C)CC2)ncc1-c1nc2cc(C(F)(F)F)ccc2[nH]1 [Example 24, [3-(1-Methyl-piperidin-4-yl)-propyl]-[4-methyl-5-(5-trifluoromethyl-1H-benzoimidazol-2-yl)-pyrimidin-2-yl]-amine]
23 | 0.013 | Cc1nc(NCCCC2CCN(C)CC2)ncc1-c1nc2cc(C(C)(C)C)ccc2[nH]1 [Example 25, [5-(5-tert-Butyl-1H-benzoimidazol-2-yl)-4-methyl-pyrimidin-2-yl]-[3-(1-methyl-piperidin-4-yl)-propyl]-amine]
24 | 0.013 | Cc1nc(NCCCC2CCN(C)CC2)ncc1-c1nc2c(C)c(Cl)ccc2[nH]1 [Example 26, [5-(5-Chloro-4-methyl-1H-benzoimidazol-2-yl)-4-methyl-pyrimidin-2-yl]-[3-(1-methyl-piperidin-4-yl)-propyl]-amine]
25 | 0.092 | Cc1c(F)ccc2[nH]c(-c3cnc(NCCCC4CCN(C)CC4)nc3C(F)(F)F)nc12 [Example 27, [5-(5-Fluoro-4-methyl-1H-benzoimidazol-2-yl)-4-trifluoromethyl-pyrimidin-2-yl]-[3-(1-methyl-piperidin-4-yl)-propyl]-amine]
26 | 0.062 | Cc1cc(F)cc2[nH]c(-c3cnc(NCCCC4CCN(C)CC4)nc3C(F)(F)F)nc12 [Example 28, [5-(6-Fluoro-4-methyl-1H-benzoimidazol-2-yl)-4-trifluoromethyl-pyrimidin-2-yl]-[3-(1-methyl-piperidin-4-yl)-propyl]-amine]
27 | 0.035 | CN1CCC(CCCNc2ncc(-c3nc4c(Cl)cc(Cl)cc4[nH]3)c(C(F)(F)F)n2)CC1 [Example 29, [5-(4,6-Dichloro-1H-benzoimidazol-2-yl)-4-trifluoromethyl-pyrimidin-2-yl]-[3-(1-methyl-piperidin-4-yl)-propyl]-amine]
28 | 0.23 | Cc1ccc2[nH]c(-c3cnc(NCCCC4CCN(C)CC4)nc3C(F)(F)F)nc2c1C [Example 30, [5-(4,5-Dimethyl-1H-benzoimidazol-2-yl)-4-trifluoromethyl-pyrimidin-2-yl]-[3-(1-methyl-piperidin-4-yl)-propyl]-amine]
29 | 0.23 | CN1CCC(CCCNc2ncc(-c3nc4cc(F)c(F)cc4[nH]3)c(C(F)(F)F)n2)CC1 [Example 31, [5-(5,6-Difluoro-1H-benzoimidazol-2-yl)-4-trifluoromethyl-pyrimidin-2-yl]-[3-(1-methyl-piperidin-4-yl)-propyl]-amine]
30 | 6.11 | CC(C)c1nc(NCCCC2CCN(C)CC2)ncc1-c1nc2c(F)c(F)ccc2[nH]1 [Example 32, [5-(4,5-Difluoro-1H-benzoimidazol-2-yl)-4-isopropyl-pyrimidin-2-yl]-[3-(1-methyl-piperidin-4-yl)-propyl]-amine]
31 | 0.25 | Cc1c(F)ccc2[nH]c(-c3cnc(NCCCC4CCN(C)CC4)cn3)nc12 [Example 33, [5-(5-Fluoro-4-methyl-1H-benzoimidazol-2-yl)-pyrazin-2-yl]-[3-(1-methyl-piperidin-4-yl)-propyl]-amine]
32 | 0.68 | Cc1ccc2[nH]c(-c3cnc(NCCCC4CCN(C)CC4)cn3)nc2c1C [Example 34, [5-(4,5-Dimethyl-1H-benzoimidazol-2-yl)-pyrazin-2-yl]-[3-(1-methyl-piperidin-4-yl)-propyl]-amine]
33 | 0.011 | Cc1nc(NCCCC2CCN(C)CC2)ncc1-c1nc2c(C(F)(F)F)cc(C(F)(F)F)cc2[nH]1 [Example 35, [5-(4,6-Bis-trifluoromethyl-1H-benzoimidazol-2-yl)-4-methyl-pyrimidin-2-yl]-[3-(1-methyl-piperidin-4-yl)-propyl]-amine]
34 | 0.17 | Cc1nc(NCCCC2CCN(C)CC2)ncc1-c1nc2cc(C#N)ccc2[nH]1 [Example 36, 2-{4-Methyl-2-[3-(1-methyl-piperidin-4-yl)-propylamino]-pyrimidin-5-yl}-1H-benzoimidazole-5-carbonitrile]
